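Protocol summary: plate cells (96-well), add compound at 5 concentrations, incubate 48 h, interpolate endpoints linearly. Definition used: TGI = concentration required for complete inhibition of growth.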

The text below walks through data of PubChem BioAssay (NCI).

Some test systems named below: HCC-2998 colon; SK-MEL-2 melanoma; M14 melanoma; MDA-N; MALME-3M melanoma; A549 NSCLC; SR leukemia; MDA-MB-231 breast; SNB-75 CNS; DU-145 prostate; OVCAR-5 ovarian; COLO 205 colon; HOP-92 NSCLC; HL-60(TB) leukemia; HCT-116 colon; NCI-H226 lung; HS 578T breast; KM12 colon; BT-549 breast.
Holding throughout (assay): growth of human tumour cells (NCI), 48 h

Regarding `CCOC(=O)C(=CNc1ccc(S(N)(=O)=O)cc1)C(=O)OCC`, the TGI in the assay on HCC-2998 colon, in the assay with SK-MEL-2 melanoma, in the assay on M14 melanoma, with MDA-N, in the assay on MALME-3M melanoma and with A549 NSCLC was > 100 µM throughout. In addition, the TGI in the assay with SR leukemia, in the assay on MDA-MB-231 breast, in the assay with SNB-75 CNS, with DU-145 prostate, with OVCAR-5 ovarian and in the assay on COLO 205 colon was > 100 µM throughout. For the same compound, the TGI in the assay with HOP-92 NSCLC, in the assay with HL-60(TB) leukemia, in the assay on HCT-116 colon, in the assay with NCI-H226 lung and in the assay with HS 578T breast was > 100 µM throughout.
On to `CS(=O)(=O)c1ccc(C(=O)O[C@@H]2C(=O)N3CC[C@H]4OC(O)[C@@H]2[C@H]43)cc1` (stereo not given in full), for which the TGI in the assay on HCC-2998 colon, in the assay with SK-MEL-2 melanoma, with M14 melanoma, in the assay on A549 NSCLC, in the assay on KM12 colon and in the assay on SR leukemia was > 100 µM in each case. Also, the TGI in the assay on MDA-MB-231 breast, with SNB-75 CNS, in the assay with DU-145 prostate, in the assay with OVCAR-5 ovarian, in the assay with BT-549 breast and in the assay with COLO 205 colon was > 100 µM in each case. Further, the TGI in the assay with HCT-116 colon and in the assay on NCI-H226 lung was > 100 µM in each case.
Take `CON1C(=O)C2(CCCCC2)C(=O)C12C=CC(C)CC2` (stereo not given): the TGI in the assay on HCC-2998 colon, with SK-MEL-2 melanoma, in the assay with M14 melanoma, in the assay on MALME-3M melanoma, in the assay with A549 NSCLC and with KM12 colon was > 100 µM throughout. Also, the TGI in the assay on SNB-75 CNS, in the assay with COLO 205 colon, in the assay with HL-60(TB) leukemia and with NCI-H226 lung was > 100 µM throughout.
For the compound `CC1CN=C(N(C(=O)Nc2ccc(Cl)cc2)c2cccc(Cl)c2)S1` (stereo not given), the TGI in the assay with HCC-2998 colon is 84.6 µM; in the assay on SK-MEL-2 melanoma it was 44.9 µM; in the assay on M14 melanoma, > 100 µM; with MDA-N, > 100 µM; with MALME-3M melanoma it was > 100 µM; in the assay on A549 NSCLC, > 100 µM. In addition, the TGI with KM12 colon, with SR leukemia, in the assay with MDA-MB-231 breast, in the assay with SNB-75 CNS, in the assay with DU-145 prostate and with OVCAR-5 ovarian was > 100 µM in each case. Also, the TGI in the assay with COLO 205 colon is 40.1 µM; with HOP-92 NSCLC, 65.4 µM; in the assay with HL-60(TB) leukemia it was > 100 µM; in the assay with HCT-116 colon, > 100 µM; in the assay with HS 578T breast, > 100 µM.
On to `COc1ccccc1N1C(=O)CSC1c1cccc(Oc2ccccc2)c1` (stereo not given), for which the TGI is 29.9 µM with SK-MEL-2 melanoma; 33.5 µM with M14 melanoma; 30.6 µM with MALME-3M melanoma; 47.4 µM in the assay on A549 NSCLC; 75.6 µM in the assay with KM12 colon; 70.5 µM with SR leukemia. In addition, the TGI is 32.4 µM in the assay on MDA-MB-231 breast; 41.7 µM in the assay with SNB-75 CNS; 38.7 µM in the assay on DU-145 prostate; 50.4 µM in the assay with OVCAR-5 ovarian; 31.9 µM in the assay with BT-549 breast; 34.9 µM with COLO 205 colon. Besides, the TGI was determined as 26.5 µM in the assay with HOP-92 NSCLC; 72.6 µM in the assay on HL-60(TB) leukemia; 31.5 µM with HCT-116 colon; 36.9 µM in the assay on NCI-H226 lung; 44.5 µM with HS 578T breast.
As to `C=C(C)[C@@]12C[C@H](OC(=O)[C@H](O)[C@@H](NC(=O)c3ccccc3)c3ccccc3)C(C)=C1[C@@H](OC(C)=O)C(=O)[C@@]1(C)C([C@@H]2OC(=O)c2cc(F)cc(F)c2)C2(OC(C)=O)CO[C@@H]2C[C@@H]1O` (stereo not given in full), the TGI with HCC-2998 colon is 2.16 µM; in the assay on SK-MEL-2 melanoma, 2.28 µM; in the assay on M14 melanoma, > 10 µM; with MALME-3M melanoma it was > 8.81 µM; in the assay on A549 NSCLC it was > 6.61 µM; in the assay on KM12 colon, > 3.26 µM. Besides, the TGI with SR leukemia is > 3.64 µM; in the assay with MDA-MB-231 breast, 2.22 µM; in the assay with SNB-75 CNS, 0.973 µM; in the assay on DU-145 prostate it was > 5.16 µM; in the assay with OVCAR-5 ovarian, 1.51 µM; in the assay on BT-549 breast, 2.99 µM. The TGI is 0.392 µM in the assay with COLO 205 colon; > 10 µM with HOP-92 NSCLC; 0.224 µM in the assay with HL-60(TB) leukemia; 1.22 µM with HCT-116 colon; > 10 µM in the assay on NCI-H226 lung; 0.215 µM in the assay on HS 578T breast.
Turning to `CC(=O)/C(=C/N1CC(=O)NC1=S)C(=O)Nc1ccccc1C`, the TGI in the assay with HCC-2998 colon, with SK-MEL-2 melanoma, in the assay on M14 melanoma, in the assay with MDA-N, with A549 NSCLC and in the assay with KM12 colon was > 100 µM throughout. Further, the TGI with MDA-MB-231 breast, in the assay on SNB-75 CNS, with DU-145 prostate, in the assay on OVCAR-5 ovarian, in the assay with BT-549 breast and in the assay with COLO 205 colon was > 100 µM throughout. The TGI with HOP-92 NSCLC, in the assay on HL-60(TB) leukemia and in the assay with HCT-116 colon was > 100 µM each time.
`CCOP(=O)(OCC)/C(=C\n1ccc(=O)[nH]c1=S)C(=O)OC`: the TGI in the assay with HCC-2998 colon, with SK-MEL-2 melanoma, in the assay on M14 melanoma, with MDA-N, in the assay with MALME-3M melanoma and with A549 NSCLC was > 100 µM throughout. For the same compound, the TGI in the assay with KM12 colon, in the assay on SR leukemia, with MDA-MB-231 breast, with SNB-75 CNS, in the assay with DU-145 prostate and in the assay with OVCAR-5 ovarian was > 100 µM in each case. Besides, the TGI with COLO 205 colon, in the assay on HL-60(TB) leukemia, in the assay with HCT-116 colon, in the assay with NCI-H226 lung and in the assay with HS 578T breast was > 100 µM throughout.
